Measurements from ChEMBL document CHEMBL1157597, “Exploring a synthetic organoselenium compound for antioxidant pharmacotherapy--toxicity and effects on ROS-production” (Bioorg Med Chem, 2010).
Calls of active or inactive are those of the source. The rule behind the calls is not given here.

Legend:
HEK293 [1] = test: Cytotoxicity against HEK293 cells assessed as cell death at 60 uM after 7 days by LDH assay; type: cell-based; conditions: human, hek293, 168 h
[2] = Cytotoxicity against human MG63 cells assessed as cell death at 60 uM after 7 days by LDH assay; type: cell-based; conditions: mg-63, 168 h
MRC5 [3] = test: Cytotoxicity against human MRC5 cells assessed as plasma membrane damage at 60 uM after 7 days by LDH assay; type: cell-based; conditions: mrc5, 168 h
Caco-2 [4] = test: Cytotoxicity against human Caco-2 cells assessed as plasma membrane damage at 60 uM after 7 days by LDH assay; type: cell-based; conditions: caco-2, 168 h
Caco-2 [5] = test: Cytotoxicity against human Caco-2 cells assessed as cell death at 60 uM after 7 days by LDH assay; type: cell-based; conditions: caco-2, 168 h
HEK293 [6] = test: Cytotoxicity against HEK293 cells assessed as plasma membrane damage at 60 uM after 7 days by LDH assay; type: cell-based; conditions: human, hek293, 168 h
MRC5 [7] = test: Cytotoxicity against human MRC5 cells assessed as cell death at 60 uM after 7 days by LDH assay; type: cell-based; conditions: mrc5, 168 h
SH-SY5Y [8] = test: Cytotoxicity against human SH-SY5Y cells assessed as plasma membrane damage at 60 uM after 7 days by LDH assay; type: cell-based; conditions: 168 h
[9] = Cytotoxicity against human MG63 cells assessed as plasma membrane damage at 60 uM after 7 days by LDH assay; type: cell-based; conditions: mg-63, 168 h
SH-SY5Y [10] = test: Cytotoxicity against human SH-SY5Y cells assessed as cell death at 60 uM after 7 days by LDH assay; type: cell-based; conditions: 168 h
[11] = Antioxidant activity against ABTS radicals assessed as trolox equivalents in phosphate buffer of pH 7.4 at 6.08 uM by ABTS assay; type: functional
THP-1 = test: Antioxidant activity against ROS-production in PMA-stimulated human THP1 cells by chemiluminescence; type: cell-based
Caco-2 [12] = test: Cytotoxicity against human Caco-2 cells assessed as decrease in proliferation up to 200 uM after 7 days by alamar blue assay; type: cell-based; conditions: caco-2, 168 h
SH-SY5Y [13] = test: Cytotoxicity against human SH-SY5Y cells assessed as decrease in proliferation up to 200 uM after 7 days by alamar blue assay; type: cell-based; conditions: 168 h
HEK293 [14] = test: Cytotoxicity against HEK293 cells assessed as decrease in proliferation up to 200 uM after 7 days by alamar blue assay; type: cell-based; conditions: human, hek293, 168 h
[15] = Cytotoxicity against human MG63 cells assessed as decrease in proliferation up to 200 uM after 7 days by alamar blue assay; type: cell-based; conditions: mg-63, 168 h
Neutrophil = test: (§1) Antioxidant activity against ROS-production in human neutrophils by chemiluminescence; type: functional, cell-based
[16] = as §1; type: functional, cell-based; conditions: Neutrophil
MRC5 [17] = test: Cytotoxicity against human MRC5 cells assessed as decrease in proliferation up to 200 uM after 7 days by alamar blue assay; type: cell-based; conditions: mrc5, 168 h

Row | Compound | Activity (HEK293 [1]) | Activity [2] | Activity (MRC5 [3]) | Activity (Caco-2 [4]) | Activity (Caco-2 [5]) | Activity (HEK293 [6]) | Activity (MRC5 [7]) | Activity (SH-SY5Y [8]) | Activity [9] | Activity (SH-SY5Y [10]) | Activity [11] | Activity (THP-1) | Activity (Caco-2 [12]) | Activity (SH-SY5Y [13]) | Activity (HEK293 [14]) | Activity [15] | Activity (Neutrophil) | IC50 [16] [nM] | Activity (MRC5 [17])
1 | Cc1c(C)c2c(c(C)c1O)CCC(C)(C(=O)O)O2 (stereo unspecified) [TROLOX] | Non-toxic | Non-toxic | Non-toxic | Non-toxic | Non-toxic | Non-toxic | Non-toxic | Non-toxic | Non-toxic | Non-toxic | – | – | – | – | – | – | – | – | –
2 | CC(=O)N[C@@H](CS)C(=O)O | – | – | – | – | – | – | – | – | – | – | 2.4 | – | – | – | – | – | – | – | –
3 | CC1Cc2cc(O)ccc2[Se]1 (stereo unspecified) | Non-toxic | Non-toxic | Non-toxic | Non-toxic | Non-toxic | Non-toxic | Non-toxic | Non-toxic | Non-toxic | Non-toxic | Active | Dose-dependent effect | Non-toxic | Non-toxic | Non-toxic | Non-toxic | Dose-dependent effect | 1000 | Non-toxic
4 | O=C1O[C@H]([C@@H](O)CO)C([O-])=C1O.[Na+] | – | – | – | – | – | – | – | – | – | – | Active | – | – | – | – | – | – | – | –
